Laboratory results published in ChEMBL document CHEMBL1287745, “AdoHcy hydrolase of Trichomonas vaginalis: studies of the effects of 5'-modified adenosine analogues and related 6-N-cyclopropyl derivatives” (Bioorg Med Chem Lett, 2010).
≈ marks a conversion by molar mass, not a printed value. Where “and” joins values, the source holds several entries; their conditions need not be identical. Equal entries are not always repeated.

Legend:
[1] = test system: Trypanosoma; assay: Antimicrobial activity against Trypanosoma; type: functional, organism-based
[2] = test system: Trichomonas vaginalis; assay: Antiparasitic activity against Trichomonas vaginalis T1 at […] after 24 hrs by hemocytometric analysis; type: functional
[3] = test system: Trichomonas vaginalis; assay: […] activity against Trichomonas vaginalis T1; type: functional, organism-based
[4] = Trichomonas vaginalis, T1, read-out: IC50

| SMILES | growth inhibition (GI) [2] [%] | IC50 [3, 4] | other results |
| --- | --- | --- | --- |
| O[C@@H]1[C@H](O)[C@@H](C=CF)O[C@H]1n1cnc2c(NC3CC3)ncnc21 | 10 |  | IC50 ([1]; Trypanosoma, read-out: IC50): 19 µg/mL (≈ 59.1 µM) |
| ON=C[C@H]1O[C@@H](n2cnc3c(NC4CC4)ncnc32)[C@H](O)[C@@H]1O | 41 |  | IC50 [1]: Not Active |
| Nc1ncnc2c1ncn2[C@@H]1O[C@H](/C=C\I)[C@@H](O)[C@H]1O | 81 | 76 µM and 24 µg/mL |  |
| Nc1ncnc2c1ncn2CCC(O)CO (stereo not given) | 11 |  |  |
| O[C@@H]1[C@H](O)[C@@H](C=CI)O[C@H]1n1cnc2c(NC3CC3)ncnc21 | 24 |  | IC50 ([1]; Trypanosoma, read-out: IC50): 12 µg/mL (≈ 28 µM); IC50 [3]: Not Active |
| Nc1ncnc2c1ncn2[C@@H]1O[C@H](/C=C/C#CI)[C@@H](O)[C@H]1O | 34 |  |  |
| Nc1ncnc2c1ncn2[C@@H]1C[C@H](C(=O)O)[C@@H](O)[C@H]1O | 36 |  |  |
| Nc1ncnc2c1ncn2[C@@H]1O[C@H](C=NO)[C@@H](O)[C@H]1O | 93 | 40 µM and 11 µg/mL |  |
| COC(=O)[C@H]1O[C@@H](n2cnc3c(N)ncnc32)[C@H](O)[C@@H]1O | 4 |  |  |
| Cc1ncc([N+](=O)[O-])n1CCO [METRONIDAZOLE] |  | 0.12 µg/mL (≈ 0.701 µM) |  |
| Nc1ncnc2c1ncn2[C@@H]1O[C@H](C(=O)O)[C@@H](O)[C@H]1O [5'-CARBOXY ADENOSINE] | 17 |  |  |
| COC(=O)C(O)CCn1cnc2c(N)ncnc21 (stereo not given) | 16 |  |  |
| Nc1ncnc2c1ncn2[C@@H]1O[C@H](/C=C/CCCC(=O)O)[C@@H](O)[C@H]1O | 22 |  |  |
| Nc1ncnc2c1ncn2[C@@H]1O[C@H](/C=C/I)[C@@H](O)[C@H]1O | 85 | 60 µM and 19 µg/mL |  |
| O[C@@H]1[C@H](O)[C@@H](C=C(Br)Br)O[C@H]1n1cnc2c(NC3CC3)ncnc21 | 12 |  | IC50 [1]: Not Active |
| Nc1ncnc2c1ncn2[C@@H]1C[C@H](CO)[C@@H](O)[C@H]1O [ARISTEROMYCIN] | 95 | 10 µM and 3 µg/mL |  |
